This note sets out measurements from ChEMBL document CHEMBL1123343, “5-(Halomethyl)-2-pyranones as irreversible inhibitors of alpha-chymotrypsin” (J Med Chem, 1986).

In test [1] the target is T1, Chymotrypsin-C (Homo sapiens) (UniProt Q99895).
T1 sequence (whole entry): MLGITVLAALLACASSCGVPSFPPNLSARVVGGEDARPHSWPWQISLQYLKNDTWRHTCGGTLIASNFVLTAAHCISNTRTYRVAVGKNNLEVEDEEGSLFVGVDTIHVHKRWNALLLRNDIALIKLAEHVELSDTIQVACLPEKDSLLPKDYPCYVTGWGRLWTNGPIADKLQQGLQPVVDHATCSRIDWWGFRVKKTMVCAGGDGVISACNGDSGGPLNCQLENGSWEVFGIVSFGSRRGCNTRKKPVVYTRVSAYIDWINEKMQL
Description: Inactivation efficiency (I/E) was determined by incubating different ratios of pyrone and chymotrypsin for 18 hr and then assaying the surviving enzyme activity; NI=No inactivation

The target of a further test is T2, Chymotrypsin-C (Homo sapiens, UniProt Q99895).
T2 sequence (Q99895 whole entry): T1 sequence (whole entry)
Put plainly: Compound was tested for inhibition against alpha-chymotrypsin using N-acetyl tyrosine p-nitrophenyl ester; WI=Weak inhibition.

Test [2] concerns the target T1, Chymotrypsin-C (Homo sapiens). The source holds these as a separate data set.
Description: Inactivation rate constant (kinact) was determined by exposing Chymotrypsinogen to different concentrations of the purine and periodically diluting aliquots into an assay medium containing one of the chromogenic substrates; NI=No inactivation
The target is the same in test [3]. As to the kind of experiment: Inactivation rate constant (kinact) was determined by exposing chymotrypsin to different concentrations of the […] and periodically diluting aliquots into an assay medium containing one of the […].
Test [4] has the same target. This is another data set of the same source.
Description: Inactivation efficiency (I/E) was determined by incubating different ratios of pyrone and chymotrypsin for 18 h and then assaying the surviving Chymotrypsinogen enzyme activity
Test [5] shares this target. As to the kind of experiment: Inactivation efficiency (I/E) was determined by incubating different ratios of pyrone and […] for 18 hr and then assaying the surviving enzyme activity; NI=No inactivation.

On to `O=c1occ(CCl)cc1CCl`, for which the I/E entry in test [1] was “No inactivation”. In addition, at Chymotrypsin-C, the Ki entry is “Weak inhibition”. Moreover, in test [2], the K inact result is “No inactivation”.

In the case of `O=c1occ(CCl)cc1Cc1cccc2ccccc12`, the Ki result on Chymotrypsin-C is on record as “Weak inhibition”. Also, in test [3], the K inact was determined as 0.085 min⁻¹. This compound also yielded an I/E in test [4] of 1.38.

Regarding `Cc1oc(=O)c(Cc2cccc3ccccc23)cc1CCl`, on Chymotrypsin-C, the Ki result is “Weak inhibition”. In addition, the I/E entry in test [5] is “No inactivation”. Moreover, the K inact result in test [2] is “No inactivation”.
